In patent US20200215082A1, “Dihydrotestosterone and Dihydrotestosterone Derivatives and Promoters in the Treatment of Cancer” (Tyme, Inc., priority 2016, published 2020):

Tested on: cancerous tumor of the distal radius
Experiment: Treatment of a canine with a cancerous tumor of the distal radius (X-ray)
Assay type: in vivo
Conditions: after stanozolol administration, FIG. 1 before, FIG. 2 after, dose and route not given
Protocol: FIG. 1 is an X-ray depicting a cancerous tumor on the distal radius of a canine.
FIG. 2 is an X-ray depicting calcification of the cancerous tumor shown in FIG. 1 after treatment according to a preferred aspect of the disclosure.
A canine presenting with a cancerous tumor of the distal radius (see FIG. 1) was administered stanozolol.

## stanozolol
  calcification of the cancerous tumor: the cancerous tumor calcified
